Each structure is given as a SMILES string.

In this assay the target is KDR (Homo sapiens, UniProt P35968). The assay can be described thus: KDR kinase inhibition (Ki). The class given is biochemical.
Chain of KDR (P35968 20-1356, species assumed): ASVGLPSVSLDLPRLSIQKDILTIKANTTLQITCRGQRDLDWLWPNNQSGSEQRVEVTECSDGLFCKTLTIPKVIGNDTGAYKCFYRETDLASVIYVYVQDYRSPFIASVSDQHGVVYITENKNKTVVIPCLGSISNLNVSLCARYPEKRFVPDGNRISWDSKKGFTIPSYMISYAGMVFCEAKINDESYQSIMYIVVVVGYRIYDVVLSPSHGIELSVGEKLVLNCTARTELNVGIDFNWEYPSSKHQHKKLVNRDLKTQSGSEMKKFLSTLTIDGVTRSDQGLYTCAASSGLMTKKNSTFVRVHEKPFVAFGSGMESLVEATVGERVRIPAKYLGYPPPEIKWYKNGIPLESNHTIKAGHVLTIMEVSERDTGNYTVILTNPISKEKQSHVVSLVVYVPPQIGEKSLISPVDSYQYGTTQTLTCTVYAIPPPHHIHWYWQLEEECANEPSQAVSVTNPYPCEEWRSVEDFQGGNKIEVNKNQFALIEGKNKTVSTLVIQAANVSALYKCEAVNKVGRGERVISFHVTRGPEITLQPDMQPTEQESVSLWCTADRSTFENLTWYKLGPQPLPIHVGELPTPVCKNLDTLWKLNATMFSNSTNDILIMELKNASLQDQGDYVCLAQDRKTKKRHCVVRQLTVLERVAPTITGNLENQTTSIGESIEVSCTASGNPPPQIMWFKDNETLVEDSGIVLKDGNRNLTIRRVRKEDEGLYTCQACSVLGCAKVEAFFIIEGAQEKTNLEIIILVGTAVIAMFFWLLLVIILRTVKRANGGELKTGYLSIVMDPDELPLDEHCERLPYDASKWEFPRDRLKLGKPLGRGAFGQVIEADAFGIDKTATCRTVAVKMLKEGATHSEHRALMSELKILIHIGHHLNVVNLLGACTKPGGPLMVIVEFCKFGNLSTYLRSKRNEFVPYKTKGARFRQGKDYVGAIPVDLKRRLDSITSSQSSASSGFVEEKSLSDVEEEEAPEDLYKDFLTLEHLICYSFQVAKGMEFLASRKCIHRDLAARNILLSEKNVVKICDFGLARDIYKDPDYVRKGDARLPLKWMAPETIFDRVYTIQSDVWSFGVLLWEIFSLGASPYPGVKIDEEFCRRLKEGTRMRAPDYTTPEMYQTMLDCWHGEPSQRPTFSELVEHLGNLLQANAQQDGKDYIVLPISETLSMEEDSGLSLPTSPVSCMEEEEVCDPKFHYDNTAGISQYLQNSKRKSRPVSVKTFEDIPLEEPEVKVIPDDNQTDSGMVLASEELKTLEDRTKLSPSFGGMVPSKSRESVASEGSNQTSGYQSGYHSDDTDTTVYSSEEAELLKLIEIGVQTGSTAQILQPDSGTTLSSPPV
By Ki is commonly meant the dissociation constant of the complex between target and ligand, obtained from inhibition or displacement. Low values mean tighter binding, high ones weaker binding. With `CC(C)(C)c1ccc(NC(=O)c2cccc3c2CCN(Cc2ccncc2)C3)cc1` [Example 1A], the Ki amounted to 333 nM. The result for `CC(C)c1ccc(NC(=O)Nc2cccc3c2CCN(Cc2ccnc4ccccc24)C3)cc1` [Example 5A] reads 72.3 nM; that for `COc1cc2nccc(Cn3ccc4cc(Cl)ccc4c3=O)c2cc1OC` [Example 11, 6-chloro-2-((6,7-dimethoxyquinolin-4-yl)methyl)isoquinolin-1(2H)-one], 529 nM. The value for `COc1cc(NC(=O)c2cccc3c2CCN(Cc2ccnc4ccccc24)C3)cc(OC)c1` [Example 3C] was 42.8 nM; that for `O=C(Nc1ccc(Cl)cc1)c1cccc2c1CCN(Cc1ccncc1)C2` [Example 1, N-(4-chlorophenyl)-2-(pyridin-4-ylmethyl)-1,2,3,4-tetrahydroisoquinoline-5-carboxamide] was 3000 nM. Molecule `CC(=O)N1CC(C)(C)c2ccc(NC(=O)c3cccc4c3CCN(Cc3ccnc5ccccc35)C4)cc21` [Example 3H] registered a Ki of 5.4 nM. `Cc1cccc(NC(=O)c2cccc3c2CCN(Cc2ccnc4ccccc24)C3)c1` [Example 3A] registered a Ki of 105 nM. The value for `O=C(Nc1ccc(Cl)cc1)Nc1cccc2c1CCN(Cc1ccnc3ccccc13)C2` [Example 5C] was 70.1 nM; that for `COc1cc2nccc(CN3CCc4c(C(=O)Nc5ccc(Cl)c(C(F)(F)F)c5)cccc4C3=O)c2cc1OC` [Example 10A] was 1.6 nM. The value for `CC(C)(C)c1ccc(NC(=O)c2cccc3c2CCN(Cc2ccnc4ccccc24)C3=O)cc1` [Example 7A] was 11.1 nM.

(Values after patent US8338455B2, “Compounds and methods of use” (Amgen Inc., priority 2006, dated 2012).)
